The values that follow come from patent publication US8367317B2, “Variants of hepatitis B virus with resistance to anti-viral nucleoside agents and applications thereof” (Melbourne Health; St. Vincent's Hospital Melbourne; Austin …, priority 2005, dated 2013).

Counter-ions that a name gives are not always drawn.

Experiment [1] has as its system HBV mutant V173L triple (rt V173L, L180M, M204V). The experiment in a line: Antiviral testing in HepG2 cells transduced with recombinant HBV/baculovirus, V173L triple mutant. Type of experiment: cell-based, hepatitis B virus. The note with it: area under dose-response curve, value relative to WT = 1.0. How it is done:
(§1) The sensitivity/resistance profile of HBV mutants to adefovir, tenofovir and other antiviral agents was examined in vitro using recombinant HBV/baculovirus. The procedure for analysing the resistance profile is outlined in the following Examples 7-14.
(§2) Sf21 insect cells were maintained in supplemented Grace's insect medium further supplemented with 10% v/v heat-inactivated fetal bovine serum (Gibco BRL, Gaithersburg, Md.) in humidified incubator at 28 C with CO2. HepG2 cells were maintained in minimal essential medium supplemented with 10% v/v heat-inactivated fetal bovine serum (MEM-FBS). HepG2 cells were grown in humidified 37° C. incubators at 5% v/v CO2.
(§3) The recombinant HBV/baculovirus system used for antiviral testing has been previously described (Delaney et al., Antimicrob Agents Chernother 45(6): 1705-[…], 2001). In brief, the recombinant transfer vector was created by excising a fragment containing the 1.3× HBV genome construct and cloning it into the multiple cloning region of a baculovirus vector pBlueBac4.5 (Invitrogen, Carlsbad, Calif.). Point mutations were created by site directed mutagenesis using the commercial kits according to the manufacturers specifications (QuikChange, Stratagene). The nucleotide sequence of the plasmid and the point mutations generated by site directed mutagenesis were confirmed by sequencing using the ABI Prism Big Dye Terminator Cycle Sequencing Ready Reaction Kit according to the manufacturer's specifications (Perkin Elmer, Cetus Norwalk, Conn.). The panel of HBV mutants was generated from a wild type (WT) genotype D HBV isolate by site-directed mutagenesis. Mutants encoded either WT HBV polymerase or polymerase with the amino acid substitutions listed in Table 8 in an HBeAg negative (precore [PC] G1896A mutant) background. Other HBV mutants can be made and tested for antiviral sensitivity in a similar manner.
(§4) Purified recombinant transfer vector and linear AcMNPV baculovirus DNA were co-transfected into Sf21 cells using the BacNBlue transfection kit from Invitrogen (Carlsbad, Calif.); recombinant viruses were isolated by plaque assay according to the manufacturer's instructions. A series of recombinant viruses were amplified from isolated plaques by infecting 100-mm dishes of Sf21 cells. Viral DNA was extracted from amplified viruses using standard procedures. Purified viral DNA was digested with restriction enzymes and then fractionated by electrophoresis in a 1% […] agarose gel. Southern blotting was performed to determine which virus isolates contained the intact 1.3 HBV construct. A Boehringer Mannheim Random Prime DNA Labeling kit (Indianapolis, Ind.) was used to generate [P^32]-radiolabeled probes. A full-length double-stranded HBV genome was used as a template for all radiolabeled probes. Viral DNA sequence was confirmed by PCR amplification and sequencing of the polymerase catalytic region.
(§5) Baculoviruses were amplified by infecting suspension cultures of Sf21 cells in log phase at a multiplicity of infection (moi) of 0.5 pfu/cell. […] Virions were concentrated from infected Sf21 medium by centrifugation at 80,000×g and purified through a 20-60% w/v sucrose gradient. Purified virus was titrated in quadruplicate in Sf21 cells by end-point dilution. An aliquot of each high titer stock was used for DNA extraction. The polymerase gene was amplified and sequenced to confirm the presence of the site-directed mutagenesis.
(§6) HepG2 cells were seeded at approximately 20-40% confluency and then were grown for 16-24 hours before infection. On the day of infection, triplicate plates of cells were trypsinized, and viable cell number was determined with a hemocytometer using Trypan blue exclusion. Average cell counts were calculated and used to determine the volume of high-titer viral stock necessary to infect cells at the indicated moi. HepG2 cells were washed one time with serum-free MEM to remove traces of serum. […]

Experiment [2] relates to HBV mutant L180M double (rt L180M, M204V). The experiment in a line: Antiviral testing in HepG2 cells transduced with recombinant HBV/baculovirus, L180M double mutant. The experiment is classed as cell-based, hepatitis B virus. The following applies: area under dose-response curve, value relative to WT = 1.0. How it is done: as §1, §2, §3, §4, §5, §6
Experiment [3] concerns HBV mutant L180M quad (rt L180M, T184G, S202I, M204V). The experiment can be described thus: Antiviral testing in HepG2 cells transduced with recombinant HBV/baculovirus, L180M quad mutant. The experiment is classed as cell-based, hepatitis B virus. The note with it: area under dose-response curve, value relative to WT = 1.0. How it is done: as §1, §2, §3, §4, §5, §6
In experiment [4] the test system is WT HBV (genotype D isolate, precore G1896A background). The experiment in a line: Antiviral testing in HepG2 cells transduced with recombinant HBV/baculovirus, wild type. The experiment is classed as cell-based, hepatitis B virus. The note with it: none (WT) polymerase; area under dose-response curve; values set to 1.0 (relative to WT). How it is done: as §1, §2, §3, §4, §5, §6

Another experiment deals with HBV. The following applies: 30 mg daily dose, over 12 weeks, phase II studies; cited from earlier work.

Turning to `Cc1cn([C@@H]2C[C@@H](O)[C@H](CO)O2)c(=O)[nH]c1=O` [L-dT], the AUC in experiment [1] stood at 12.7; in experiment [2] it was 13.7; in experiment [3] it was 21.1; in experiment [4] it was 1.0.

Take `C=C1[C@H](CO)[C@@H](O)C[C@@H]1n1cnc2c(=O)[nH]c(N)nc21` [ETV, entecavir]: the AUC in experiment [1] is 47.5; in experiment [2], 215.9; in experiment [3] it was 242.7; in experiment [4] it was 1.0.

Regarding `CC(C)OC(=O)OCOP(=O)(CO[C@H](C)Cn1cnc2c(N)ncnc21)OCOC(=O)OC(C)C` [TFV, tenofovir disoproxil fumarate], the AUC was determined as 2.3 in experiment [1], 2.1 in experiment [2], 4.2 in experiment [3] and 1.0 in experiment [4].

With `CC(C)(C)C(=O)OCOP(=O)(COCCn1cnc2c(N)ncnc21)OCOC(=O)C(C)(C)C` [ADV, adefovir dipivoxil], the AUC is 0.4 in experiment [1], 1.7 in experiment [2], 1.3 in experiment [3] and 1.0 in experiment [4]. In addition, the “mean decrease in viremia” value in the experiment on HBV is 4 log10.

As to `Nc1nc(=O)n([C@@H]2CS[C@H](CO)O2)cc1F` [FTC, (−)-β-L-2′-3′-dideoxy-5-fluoro-3′-thiacydidine], the AUC in experiment [1] came out at 1200.0; in experiment [2], 761.4; in experiment [3], 464.4; in experiment [4], 1.0.

Regarding `Nc1ccn([C@@H]2CS[C@H](CO)O2)c(=O)n1` [LMV, (−)-β-2′-deoxy-3′-thiacytidine], the AUC in experiment [1] is 625.3; in experiment [2] it was 363.1; in experiment [3], 603.4; in experiment [4], 1.0.
